In US10918643B2, “No-donors for the treatment of cerebrovascular vasospasms after brain hemorrhage” (Westfaelische Wilhelms-Universitaet Muenster, priority 2015, dated 2021):

What was measured:
[1] = tested on: vasospasm and DCI after SAH; conditions: cited from earlier work
[2] = tested on: cerebral vasospasm of the middle cerebral artery (MCA) after aneurismal SAH; test: Transcranial Doppler (TCD) mean blood flow velocity in the MCAs, rescue treatment of one SAH patient; conditions: for MCA TCD R/L PRE, right / MCA TCD R/L PRE, left: continuously infused Molsidomine
[3] = tested on: delayed cerebral ischemia (DCI) after aneurismal SAH; test: Clinical neurological status and outcome (Hunt&Hess, WFNS, GCS, mNIH-SS, mRS) of the SAH patient; conditions: for recurrent clinical deteriorations (times observed): despite Nimodipine and Molsidomine infusions, right- and left-sided deficits or coma
[4] = tested on: cerebral arteries / brain perfusion after aneurismal SAH; test: Radiology (CT, CT-A, CT-P, DSA/arteriography, MRI) of the SAH patient; assay type: in vivo, human
[5] = 3, 6, and 12 months follow up, continuous Molsidomine plus intraventricular SNP boluses
[6] = Discharge at 38th POD, after Molsidomine + Nimodipine + 7 SNP boluses
[7] = discharge on the 38th day after SAH
[8] = discharge on the 38th day after SAH, Nimodipine + Molsidomine + 7 SNP boluses

COc1ccccc1Oc1c(NS(=O)(=O)c2ccc(C)cn2)nc(-c2ccnc(-c3nnn[nH]3)c2)nc1OCCO [Clazosentan]
outcome despite powerful suppression of (measurable) vasospasms ([1]; Macdonald et al. 2007): does not lead to an improved outcome

CCOC(=O)[N-]c1c[n+](N2CCOCC2)no1 [Molsidomine, N-ethoxycarbonyl-3-morpholinosydnonimine]
TCD mean flow velocity in the left MCA (LMCA) ([2]; 9th day after SAH at deterioration under Molsidomine, before SNP, 140 cm/sec the day before): 150 cm/s | TCD mean flow velocity in the RMCA ([2]; 9th day after SAH at deterioration under Molsidomine, before SNP, unchanged): 80 cm/s | MCA TCD R/L PRE, right ([2]; POD 9th first episode (R hemiplegia, aphasia), before 1st SNP dose, mean flow): r: 160/ cm/sec | MCA TCD R/L PRE, left ([2]; POD 9th first episode, before 1st SNP dose, mean flow): l: 150 cm/sec | MCA TCD R/L PRE, right ([2]; POD 9th second episode (hemiplegia l, sopor), before 2nd SNP dose): r: 190 cm/sec | MCA TCD R/L PRE, right ([2]; POD 10th 3rd episode (hemiplegia l, sopor), before 3rd SNP dose): r: 170 cm/sec | MCA TCD R/L PRE, right ([2]; POD 17th 4th episode (hemiplegia, hemiparesis, sopor, intubation), before 4th SNP dose): R: 170 cm/sec | MCA TCD R/L PRE, left ([2]; POD 17th 4th episode, before 4th SNP dose): L: 120 cm/sec | MCA TCD R/L PRE, right ([2]; POD 18 6th episode (still intubated), before 6th SNP dose): R: 160 cm/sec | MCA TCD R/L PRE, left ([2]; POD 18 6th episode, before 6th SNP dose): L: 110 cm/sec | MCA TCD R/L PRE, right ([2]; POD 22 7th episode (sudden loss of vigilance), before 7th SNP dose): R: 180 cm/sec | MCA TCD R/L PRE, left ([2]; POD 22 7th episode, before 7th SNP dose): L: 140 cm/sec | MCA TCD R/L (values) ([2]; POD 23-38, tapering of Molsidomine and Nimodipine, after 7 SNP boluses): Normal | mean blood flow velocities in both MCAs ([2]; intravenous Molsidomine at the full dose (16 mg/hr), with Nimodipine): ≤ 160 cm/s | cognitive deficit [3, 5]: did not have any cognitive deficit | mNIH-SS [3, 5]: 0 | mRS [3, 5]: 0 | RESULT: cognitive skills [3, 6]: full cognitive | RESULT: mNIH-SS [3, 6]: mNIH-SS: 0 | RESULT: mRS [3, 6]: mRS: 0 | clinical stabilization (Hunt&Hess grade I, WFNS I) ([3]; Molsidomine given after failure of standard therapy, before vasospasm and DCI progressed): clinical stabilization had been achieved for a week | recurrent clinical deteriorations (times observed) [3]: 7 times | Hunt&Hess grade [3, 7]: 0 | cognitive deficit [3, 7]: without cognitive deficit | mNIH-SS grade [3, 8]: 0 | mRS grade [3, 8]: 0 | clinical status (HH I, WFNS I) ([3]; intravenous Molsidomine at the full dose, for several days): clinically stable | GCS ([3]; intravenous Molsidomine at the full dose, several days): 14-15 | clinical outcome and cerebral infarction ([1]; SAH patients treated with intravenous molsidomine (Ehlert et al., 2015)): significant improvement in clinical outcome and less cerebral infarction | RADIOLOGY pre SNP (CT; CT-A; CT-P) ([4]; POD 17th 4th episode, before 4th SNP dose, during Molsidomine, both sides l > r, CTT prolonged, high grade vasospasm in MCAs and ACA): impaired perfusion | RADIOLOGY MRI: temporal ischemic lesion and gliosis at ventricular drainage site ([4]; POD 23-38, tapering of Molsidomine and Nimodipine): MRI (5): tiny

COCCOC(=O)C1=C(C)NC(C)=C(C(=O)OC(C)C)C1c1cccc([N+](=O)[O-])c1 (stereo not drawn) [Nimodipine]
recurrent clinical deteriorations (times observed) [3]: 7 times
